# Source: ChEMBL document CHEMBL5346941, “Design, synthesis and evaluation of novel monoamine oxidase B (MAO-B) inhibitors with improved pharmacokinetic properties for Parkinson's disease” (Eur J Med Chem, 2023)
# How the values were obtained:
# [1] = target: T1, Amine oxidase [flavin-containing] B (Homo sapiens, UniProt P27338); test: Inhibition of recombinant human MAO-B expressed in Sf9 cells using p-tyramine as substrate preincubated for 15 mins followed by substrate addition and measured after 60 mins by luciferin based luminescence analysis
# T1 sequence (P27338 whole entry): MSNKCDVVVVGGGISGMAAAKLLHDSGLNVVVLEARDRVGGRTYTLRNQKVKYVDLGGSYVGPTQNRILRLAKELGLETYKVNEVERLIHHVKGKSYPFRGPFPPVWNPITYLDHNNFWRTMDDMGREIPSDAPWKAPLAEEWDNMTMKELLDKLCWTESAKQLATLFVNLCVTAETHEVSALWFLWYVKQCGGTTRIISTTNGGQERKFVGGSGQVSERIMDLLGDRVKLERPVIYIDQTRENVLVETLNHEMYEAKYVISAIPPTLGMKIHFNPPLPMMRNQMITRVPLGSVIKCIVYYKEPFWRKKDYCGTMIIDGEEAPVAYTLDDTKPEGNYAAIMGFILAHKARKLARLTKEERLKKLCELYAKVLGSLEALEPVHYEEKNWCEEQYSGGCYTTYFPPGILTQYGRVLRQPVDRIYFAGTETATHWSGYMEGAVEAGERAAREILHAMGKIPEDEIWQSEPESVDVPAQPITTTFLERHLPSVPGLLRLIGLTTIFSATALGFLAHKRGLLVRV
# [2] = Cmax in fasted Sprague-Dawley rat at 5 mg/kg, IG measured for 24 hrs; assay type: ADME, organism-based; set-up: dose 5 mg/kg, time 24 hrs, route ig; conditions: in vivo, po
# [3] = target: T2, Amine oxidase [flavin-containing] A (Homo sapiens, UniProt P21397); test: Inhibition of recombinant human MAO-A expressed in Sf9 cells using […] as substrate preincubated for 15 mins followed by substrate addition and measured after 60 mins by luciferin based luminescence analysis
# T2 sequence (P21397 whole entry): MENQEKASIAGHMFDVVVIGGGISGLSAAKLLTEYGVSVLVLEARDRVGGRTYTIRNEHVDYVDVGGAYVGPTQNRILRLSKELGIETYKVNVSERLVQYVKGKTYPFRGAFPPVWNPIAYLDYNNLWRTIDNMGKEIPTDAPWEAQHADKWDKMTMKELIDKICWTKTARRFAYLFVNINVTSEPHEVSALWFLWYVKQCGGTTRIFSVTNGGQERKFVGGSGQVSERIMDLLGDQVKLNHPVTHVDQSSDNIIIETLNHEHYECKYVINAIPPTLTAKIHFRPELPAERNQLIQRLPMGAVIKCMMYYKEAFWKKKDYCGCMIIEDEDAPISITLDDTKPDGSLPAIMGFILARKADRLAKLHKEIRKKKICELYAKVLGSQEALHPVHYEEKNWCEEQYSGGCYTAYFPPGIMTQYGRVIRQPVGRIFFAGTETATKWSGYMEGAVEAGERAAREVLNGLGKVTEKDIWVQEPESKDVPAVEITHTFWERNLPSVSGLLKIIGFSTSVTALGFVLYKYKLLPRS
# [4] = AUC (0 to t) in fasted Sprague-Dawley rat at 1 mg/kg, iv measured for 24 hrs; assay type: ADME, organism-based; set-up: dose 1 mg/kg, time 24 hrs, route iv; conditions: in vivo
# [5] = AUC (0 to t) in fasted Sprague-Dawley rat at 5 mg/kg, IG measured for 24 hrs; assay type: ADME, organism-based; set-up: dose 5 mg/kg, time 24 hrs, route ig; conditions: in vivo, po
# [6] = Elimination half life in fasted Sprague-Dawley rat at 5 mg/kg, IG measured for 24 hrs; assay type: ADME, organism-based; conditions: in vivo, po, read-out: beta t1/2 (converted)
# [7] = Volume of distribution at steady state in fasted Sprague-Dawley rat at 1 mg/kg, iv measured for 24 hrs; assay type: ADME, organism-based; conditions: in vivo, read-out: Vdss
# [8] = Clearance in fasted Sprague-Dawley rat at 1 mg/kg, iv measured for 24 hrs; assay type: ADME, organism-based; conditions: in vivo
# [9] = Cmax in fasted Sprague-Dawley rat at 1 mg/kg, iv measured for 24 hrs; assay type: ADME, organism-based; set-up: dose 1 mg/kg, time 24 hrs, route iv; conditions: Sprague-Dawley, in vivo, read-out: Cmax
# [10] = Bioavailability in fasted Sprague-Dawley rat at 5 mg/kg, IG measured for 24 hrs; assay type: ADME, organism-based; conditions: in vivo, po
# [11] = Elimination half life in fasted Sprague-Dawley rat at 1 mg/kg, iv measured for 24 hrs; assay type: ADME, organism-based; conditions: in vivo, read-out: beta t1/2 (converted)
Compound,IC50 [1],IC50 [3],further results
NC(=O)[C@@H]1C[C@H](F)CN1Cc1ccc2oc(-c3cccc(F)c3)cc2c1,55 nM,4.89 µM,Cmax [2]: 409 ng/mL; AUC(0-t) at 24 h [4]: 250 ng·h/mL; AUC(0-t) at 24 h [5]: 1500 ng·h/mL; half-life [6]: 133 min; Vd [7]: 4.12 L/kg; clearance [8]: 66.4 mL/min/kg; Cmax [9]: 237 ng/mL; bioavailability [10]: 126%; half-life [11]: 41.2 min
C[C@H](NCc1ccc2oc(-c3ccc(F)cc3)cc2c1)C(N)=O,948 nM,3.54 µM,
C[C@H](NCc1ccc2oc(-c3ccccc3F)cc2c1)C(N)=O,5010 nM,6.2 µM,
COc1ccccc1-c1cc2cc(CN3CC[C@H]3C(N)=O)ccc2o1,1930 nM,> 10 µM,
COc1ccc(-c2cc3cc(CN[C@@H](C)C(N)=O)ccc3o2)cc1,> 10000 nM,2.78 µM,
COc1ccc(-c2cc3cc(CN4CC[C@H]4C(N)=O)ccc3o2)cc1,7390 nM,> 10 µM,
COc1ccccc1-c1cc2cc(CN[C@@H](C)C(N)=O)ccc2o1,9490 nM,6.21 µM,
COc1cccc(-c2cc3cc(CN4CC[C@H]4C(N)=O)ccc3o2)c1,103 nM,> 10 µM,
